Values after ≈ are worked out from the molar mass of the structure shown.
Test system: SAUR 9218
Test: MIC Test Method, standard agar dilution
Type: cell-based
Details: agar dilution, Mueller Hinton agar, incubated overnight at 35° C.; lowest concentration that inhibits visible growth; read-out: SAUR 9218 MIC
Outline: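 MIC (μg/ml) was read as the lowest drug level without visible growth of SAUR 9218 after overnight incubation at 35 °C. Inocula of about 10^4 to 10^5 cells per spot were applied to Mueller Hinton agar containing 2-fold serial compound dilutions.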

Row | MIC [µg/mL] | SMILES
1 | 1 (≈ 3.25 µM) | N#Cc1ccc(NC(=O)c2onc3ccccc23)c(C(=O)O)c1
2 | 8 (≈ 25.2 µM) | N#Cc1ccc(NC(=O)c2ccc3ccccc3n2)c(C(=O)O)c1
3 | 2 (≈ 6.26 µM) | Cc1cccc2cc(C(=O)Nc3ccc(C#N)cc3C(=O)O)[nH]c12
4 | 0.25 (≈ 0.588 µM) | COc1ccccc1-c1cccc2cc(C(=O)Nc3ccc(C#N)cc3C(=O)O)n(C)c12
5 | 0.5 (≈ 1.16 µM) | CN(C)S(=O)(=O)Nc1ccc2onc(C(=O)Nc3ccc(C#N)cc3C(=O)O)c2c1
6 | 1 (≈ 2.61 µM) | N#Cc1ccc(NC(=O)c2ncc(-c3cccc(Cl)c3)s2)c(C(=O)O)c1
7 | 2 (≈ 5.52 µM) | CC(=O)Nc1cccc2cc(C(=O)Nc3ccc(C#N)cc3C(=O)O)[nH]c12
8 | 0.25 (≈ 0.646 µM) | O=C(Nc1ccc(Br)cc1C(=O)O)c1cc(-c2ccccc2)on1
9 | 0.25 (≈ 0.577 µM) | N#Cc1ccc(NC(=O)c2cc(-c3ccccc3OC3CCOCC3)on2)c(C(=O)O)c1
10 | 4 (≈ 11.1 µM) | CC(C)Cn1c(C(=O)Nc2ccc(C#N)cc2C(=O)O)cc2ccccc21
11 | 8 (≈ 21.5 µM) | O=C(Nc1ccc(Br)cc1C(=O)O)c1cnc2ccccc2n1
12 | 0.125 (≈ 0.326 µM) | N#Cc1ccc(NC(=O)c2ccc(SC3CCOCC3)nc2)c(C(=O)O)c1
13 | 0.125 (≈ 0.305 µM) | Cc1ccccc1-c1cccc2cc(C(=O)Nc3ccc(C#N)cc3C(=O)O)n(C)c12
14 | 0.5 (≈ 1.14 µM) | CC(=O)Nc1ccccc1-c1ccc2onc(C(=O)Nc3ccc(C#N)cc3C(=O)O)c2c1
15 | 0.5 (≈ 1.25 µM) | Cc1c(C(=O)Nc2ccc(Br)cc2C(=O)O)noc1-c1ccccc1
16 | 16 (≈ 52.2 µM) | N#Cc1ccc(NC(=O)c2n[nH]c3ccccc23)c(C(=O)O)c1
17 | 0.125 (≈ 0.26 µM) | N#Cc1ccc(NC(=O)c2noc3ccc(NS(=O)(=O)c4ccc(F)cc4)cc23)c(C(=O)O)c1

Second part, the molecule before the results:

Row | SMILES | MIC [µg/mL]
18 | CC(C)(C)c1ccc(-c2cncc(C(=O)Nc3ccc(C#N)cc3C(=O)O)c2)cc1 | 32 (≈ 80.1 µM)
19 | N#Cc1ccc(NC(=O)c2noc3ccc(-c4ccc(C(=O)N5CCOCC5)cc4)cc23)c(C(=O)O)c1 | 0.25 (≈ 0.504 µM)
20 | Cc1sc(C(=O)Nc2ccc(C#N)cc2C(=O)O)cc1S(=O)(=O)N(C)C1CCCCC1 | 8 (≈ 17.3 µM)
21 | Cc1ccccc1CC(=O)Nc1cccc2cc(C(=O)Nc3ccc(C#N)cc3C(=O)O)[nH]c12 | 0.25 (≈ 0.553 µM)
22 | C#CCCOCC(O)COc1cccc2cc(C(=O)Nc3ccc(C#N)cc3C(=O)O)n(C)c12 (stereo not drawn) | 0.5 (≈ 1.08 µM)
23 | CC(C)Cn1c(C(=O)Nc2ccc(Br)cc2C(=O)O)cc2ccccc21 | 2 (≈ 4.82 µM)
24 | CCC(C)Sc1cnc(C(=O)Nc2ccc(Cl)cc2C(=O)O)cn1 (stereo not drawn) | 0.25 (≈ 0.683 µM)
25 | N#Cc1ccc(NC(=O)c2cc3cccc(NC(=O)Cc4cccc(F)c4)c3[nH]2)c(C(=O)O)c1 | 0.25 (≈ 0.548 µM)
26 | Cn1c(C(=O)Nc2ccc(I)cc2C(=O)O)cc2cccc(S(=O)(=O)c3ccccc3)c21 | 0.125 (≈ 0.223 µM)
27 | COCC1CCCN1S(=O)(=O)c1cc(C(=O)Nc2ccc(C#N)cc2C(=O)O)sc1C (stereo not drawn) | 64 (≈ 138 µM)
28 | Cc1sc(C(=O)Nc2ccc(C#N)cc2C(=O)O)cc1S(=O)(=O)N1CCN(c2ccccn2)CC1 | 32 (≈ 62.6 µM)
29 | O=C(Nc1ccc(Br)cc1C(=O)O)c1ccsc1 | > 128
30 | CCCCCC(=O)Nc1cccc2cc(C(=O)Nc3ccc(C#N)cc3C(=O)O)[nH]c12 | 0.5 (≈ 1.19 µM)
31 | O=C(Nc1ccc(Br)cc1C(=O)O)c1ccc(SC2CCOCC2)nc1 | 1 (≈ 2.29 µM)
32 | O=C(Nc1ccc(Br)cc1C(=O)O)c1ccc(SC2CCCCC2)nc1 | 1 (≈ 2.3 µM)
33 | Cn1c(C(=O)Nc2ccc(C#N)cc2C(=O)O)cc2cccc(NC(=O)c3cccc(S(=O)(=O)N4CCOCC4)c3)c21 | 2 (≈ 3.4 µM)

Row | SMILES | MIC [µg/mL]
34 | COc1ccccc1-c1cnc(C(=O)Nc2ccc(Br)cc2C(=O)O)o1 | 2 (≈ 4.79 µM)
35 | O=C(Nc1ccc(Br)cc1C(=O)O)c1cncc(SCc2ccccc2)n1 | 16 (≈ 36 µM)
36 | CS(=O)(=O)c1ccc(-c2cnc(C(=O)Nc3ccc(C#N)cc3C(=O)O)cn2)cc1 | > 128
37 | N#Cc1ccc(NC(=O)c2cc3cccc(NC(=O)C45CC6CC(CC(C6)C4)C5)c3[nH]2)c(C(=O)O)c1 | 16 (≈ 33.2 µM)
38 | O=C(O)c1cc(Br)ccc1NC(=O)c1cc(OCc2ccccc2)cc[n+]1[O-] | 32 (≈ 72.2 µM)
39 | O=C(O)c1cc(Br)ccc1NC(=O)c1noc2ccc(S(=O)(=O)NCc3ccccc3)cc12 | 0.06 (≈ 0.113 µM)
40 | CN(C(=O)Nc1ccc2cc(C(=O)Nc3ccc(C#N)cc3C(=O)O)n(C)c2c1)c1ccccc1 | 0.5 (≈ 1.07 µM)
41 | O=C(Nc1ccc(Br)cc1C(=O)O)c1cnc(CC(O)[C@H]2COC3(CCCCC3)O2)cn1 (stereo partly drawn) | 128 (≈ 253 µM)
42 | CN(c1ccc(Cl)cc1)S(=O)(=O)c1ccc(C(=O)Nc2ccc(Br)cc2C(=O)O)o1 | 16 (≈ 31.1 µM)
43 | O=C(Nc1ccc(Br)cc1C(=O)O)c1csc(S(=O)(=O)N2CCc3ccc(Cl)cc32)c1 | 8 (≈ 14.8 µM)
44 | Cn1c(C(=O)Nc2ccc(Br)cc2C(=O)O)cc2ccccc21 | 0.5 (≈ 1.34 µM)
45 | CC(C)OCC(O)COc1cccc2cc(C(=O)Nc3ccc(C#N)cc3C(=O)O)n(C)c12 (stereo not drawn) | 0.25 (≈ 0.554 µM)
46 | N#Cc1ccc(NC(=O)c2cc3cccc(NC(=O)Cc4ccccc4Cl)c3[nH]2)c(C(=O)O)c1 | 0.25 (≈ 0.529 µM)
47 | O=C(Nc1ccc(Br)cc1C(=O)O)c1cccs1 | > 128
48 | Cn1c(C(=O)Nc2ccc(C#N)cc2C(=O)O)cc2ccc(NC(=O)c3ccco3)cc21 | 2 (≈ 4.67 µM)

Source: patent publication US20040110802A1, “Antibacterial benzoic acid derivatives” (priority 2002, published 2004)
